# Test results: the supplement of paper PMC11061612
# Key:
# Assay in all cases: Bliss excess, mean over the matrix (fraction); higher = more synergy
# [1] = tested on: 639-V (Bladder Carcinoma)
# Outline: (§1)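 Bliss excess equals the observed combination effect minus the expected value EA + EB − EA·EB, where EA and EB are the effects of each agent alone. Combination Emax is the second-highest inhibition within the matrix. Inhibition was scaled from CellTiter-Glo 2.0 luminescence, with 0 set by vehicle wells and 1 by blank wells, after 72 hours of two-drug dosing of cells plated in 1536-well plates.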
# [2] = tested on: CAPAN-1 (Pancreatic Carcinoma)
# Outline: as §1
# [3] = tested on: EN (Endometrial Carcinoma)
# Outline: as §1
# [4] = tested on: HARA (Squamous Cell Lung Carcinoma)
# Outline: as §1
# HMV-II (Melanoma) = tested on: HMV-II (Melanoma)
# Outline: as §1
# [5] = tested on: HO-1-u-1 (Oral Cavity Carcinoma)
# Outline: as §1
# [6] = tested on: Hs-633T (Other Solid Carcinomas)
# Outline: as §1
# [7] = tested on: KARPAS-231 (B-Cell Non-Hodgkin's Lymphoma)
# Outline: as §1
# [8] = tested on: LB771-HNC (Head and Neck Carcinoma)
# Outline: as §1
# [9] = tested on: LoVo (Colorectal Carcinoma)
# Outline: as §1
# [10] = tested on: MDA-MB-468 (Breast Carcinoma)
# Outline: as §1
# NB14 (Neuroblastoma) = tested on: NB14 (Neuroblastoma)
# Outline: as §1
# [11] = tested on: NCI-H69 (Small Cell Lung Carcinoma)
# Outline: as §1
# [12] = tested on: NCI-H747 (Colorectal Carcinoma)
# Outline: as §1
# [13] = tested on: OVCAR-8 (Ovarian Carcinoma)
# Outline: as §1
# [14] = tested on: PCI-30 (Head and Neck Carcinoma)
# Outline: as §1
# [15] = tested on: RT-112 (Bladder Carcinoma)
# Outline: as §1
# [16] = tested on: SUP-T1 (T-Lymphoblastic Leukemia)
# Outline: as §1
# [17] = tested on: TE-4 (Esophageal Squamous Cell Carcinoma)
# Outline: as §1
# [18] = tested on: UMC-11 (Other Solid Carcinomas)
# Outline: as §1
Compound,Bliss excess [1],Bliss excess [2],Bliss excess [3],Bliss excess [4],Bliss excess (HMV-II (Melanoma)),Bliss excess [5],Bliss excess [6],Bliss excess [7],Bliss excess [8],Bliss excess [9],Bliss excess [10],Bliss excess (NB14 (Neuroblastoma)),Bliss excess [11],Bliss excess [12],Bliss excess [13],Bliss excess [14],Bliss excess [15],Bliss excess [16],Bliss excess [17],Bliss excess [18]
"Cc1c2c(nn1C)CSCc1cc(n(C)n1)CSc1cc(c3ccccc3c1)OCCCc1c(C(=O)O)n(C)c3c-2c(Cl)ccc13 [AZD5991] + Cc1cc2ncnn2cc1Nc1ncc2c(n1)n(C1CCOCC1)c(=O)n2C [AZD7648] (first compound max 1 µM, 7x7, partner max 10 µM)",-0.005,-0.0057,-0.056,0.045,-0.067,-0.019,-0.0097,-0.0639,-0.0251,-0.0356,0.008,-0.0505,-0.0501,-0.0703,-0.0129,-0.0572,-0.0298,0.0115,-0.025,-0.0716
"COc1cccc(OCCCN)c1-c1cc(Nc2cnc(C#N)cn2)n[nH]1 [Prexasertib] + O=C(c1cc(Cc2n[nH]c(=O)c3ccccc23)ccc1F)N1CCN(C(=O)C2CC2)CC1 [Olaparib] (first compound max 1 µM, 7x7, partner max 10 µM)",0.101,-0.111,-0.0336,-0.0682,-0.0242,-0.109,-0.0074,-0.0206,-0.0162,-0.129,-0.106,-0.0553,0.0332,0.0024,-0.0475,-0.166,-0.137,-0.0966,0.015,0.0014
"CN(C)CCCOc1ccc(-c2ccc3ncc4c(c3c2)n(C2CCOCC2)c(=O)n4C)cn1 [AZD0156] + CCN(CCO)CCCOc1ccc2c(Nc3cc(CC(=O)Nc4cccc(F)c4)[nH]n3)ncnc2c1 [AZD2811] (first compound max 1 µM, 7x7, partner max 1 µM)",0.0064,-0.0635,0.0456,0.0136,-0.0133,0.0299,-0.0139,-0.0205,-0.0498,0.0047,-0.0326,-0.0955,0.0012,-0.02,0.0425,-0.013,-0.0098,0.0321,-0.0129,-0.0622
"Cc1nc(Nc2ncc(C(=O)Nc3c(C)cccc3Cl)s2)cc(N2CCN(CCO)CC2)n1 [Dasatinib] + CC(=O)Nc1cccc(-n2c(=O)n(C3CC3)c(=O)c3c(Nc4ccc(I)cc4F)n(C)c(=O)c(C)c32)c1 [Trametinib] (first compound max 2 µM, 7x7, partner max 1 µM)",-0.0398,0.0044,-0.0056,-0.0523,-0.136,-0.0219,0.0302,-0.0267,-0.0363,0.104,-0.0521,-0.065,-0.048,-0.0238,0.0396,-0.0727,-0.0344,-0.0967,-0.12,-0.0733
"COc1cccc(OCCCN)c1-c1cc(Nc2cnc(C#N)cn2)n[nH]1 [Prexasertib] + Cc1cc2ncnn2cc1Nc1ncc2c(n1)n(C1CCOCC1)c(=O)n2C [AZD7648] (first compound max 1 µM, 7x7, partner max 10 µM)",-0.0051,-0.0274,-0.0753,-0.0085,0.0203,0.0035,0.0201,0.0123,-0.0088,-0.0687,0.0262,-0.0047,0.0337,0.0085,0.0125,-0.0227,-0.0357,-0.0536,-0.003,-0.0692
"Cc1c2c(nn1C)CSCc1cc(n(C)n1)CSc1cc(c3ccccc3c1)OCCCc1c(C(=O)O)n(C)c3c-2c(Cl)ccc13 [AZD5991] + C=CCn1c(=O)c2cnc(Nc3ccc(N4CCN(C)CC4)cc3)nc2n1-c1cccc(C(C)(C)O)n1 [AZD1775] (first compound max 1 µM, partner max 1 µM)",0.0854,-0.0981,-0.0038,0.0014,0.0001,0.0396,-0.0399,0.0195,0.0271,-0.064,-0.0956,-0.0137,-0.116,-0.0103,-0.0075,0.0371,0.0566,0.0028,0.0115,-0.0732
"CC1(C)CCC(CN2CCN(c3ccc(C(=O)NS(=O)(=O)c4ccc(NCC5CCOCC5)c([N+](=O)[O-])c4)c(Oc4cnc5[nH]ccc5c4)c3)CC2)=C(c2ccc(Cl)cc2)C1 [Venetoclax] + C[C@@H](Nc1cc(F)cc(F)c1)c1cc(C(=O)N(C)C)cc2c(=O)cc(N3CCOCC3)oc12 [AZD8186] (first compound max 1 µM, 7x7, partner max 3 µM)",0.0371,-0.0594,-0.0384,0.0144,0.0093,-0.0183,-0.017,-0.184,0.0083,0.029,-0.0688,-0.0644,0.0128,0.0197,-0.0162,-0.0292,-0.0197,-0.0402,-0.0315,-0.0263
"CC1(C)CCC(CN2CCN(c3ccc(C(=O)NS(=O)(=O)c4ccc(NCC5CCOCC5)c([N+](=O)[O-])c4)c(Oc4cnc5[nH]ccc5c4)c3)CC2)=C(c2ccc(Cl)cc2)C1 [Venetoclax] + Cn1cnc2c(F)c(Nc3ccc(Br)cc3Cl)c(C(=O)NOCCO)cc21 [Selumetinib] (first compound max 1 µM, 7x7, partner max 3 µM)",0.0346,-0.057,-0.0325,-0.0084,-0.0317,-0.0352,-0.0386,-0.177,-0.0555,-0.0458,-0.0693,-0.0221,-0.105,-0.0489,-0.0373,-0.0429,0.0554,-0.0723,-0.0277,-0.0424
"Cc1cc2ncnn2cc1Nc1ncc2c(n1)n(C1CCOCC1)c(=O)n2C [AZD7648] + C=CCn1c(=O)c2cnc(Nc3ccc(N4CCN(C)CC4)cc3)nc2n1-c1cccc(C(C)(C)O)n1 [AZD1775] (first compound max 10 µM, partner max 1 µM)",0.049,0.0049,-0.0608,-0.0542,-0.0714,0.0946,-0.0333,-0.0309,-0.0078,-0.0658,-0.0044,0.0014,-0.118,-0.0108,0.0102,0.0419,0.0239,0.0169,-0.079,-0.0202
"Cc1c2c(nn1C)CSCc1cc(n(C)n1)CSc1cc(c3ccccc3c1)OCCCc1c(C(=O)O)n(C)c3c-2c(Cl)ccc13 [AZD5991] + C[C@@H]1COCCN1C2=NC(=NC(=C2)C3(CC3)[S@](=N)(=O)C)C4=C5C=CNC5=NC=C4 [AZD6738] (first compound max 1 µM, 7x7, partner max 10 µM)",0.0431,-0.0167,-0.0039,-0.0283,-0.0496,-0.0074,0.0184,0.0252,0.0599,-0.033,0.0455,-0.0038,-0.0477,-0.018,0.001,0.0378,0.0348,-0.024,0.0683,-0.0265
"CN(CCO)CC[C@H](CSc1ccccc1)Nc1ccc(S(=O)(=O)NC(=O)c2ccc(N3CCC([C@@H](O)c4ccccc4-c4ccc(Cl)cc4)CC3)cc2)cc1S(=O)(=O)C(F)(F)F [AZD4320] + C[C@@H]1COCCN1C2=NC(=NC(=C2)C3(CC3)[S@](=N)(=O)C)C4=C5C=CNC5=NC=C4 [AZD6738] (first compound max 1 µM, 7x7, partner max 10 µM)",-0.0022,0.0034,-0.056,-0.0319,-0.0476,0.021,-0.0092,-0.0331,0.0047,-0.0355,0.0161,-0.0372,-0.0446,-0.0649,-0.0222,-0.0223,0.0135,-0.0356,0.028,-0.028
"CN(C)CCCOc1ccc(-c2ccc3ncc4c(c3c2)n(C2CCOCC2)c(=O)n4C)cn1 [AZD0156] + C[C@@H]1COCCN1C2=NC(=NC(=C2)C3(CC3)[S@](=N)(=O)C)C4=C5C=CNC5=NC=C4 [AZD6738] (first compound max 1 µM, 7x7, partner max 10 µM)",0.0109,-0.0775,-0.0073,0.0257,-0.0018,0.0189,0.0537,0.0732,-0.025,-0.0191,-0.011,-0.0448,-0.0233,-0.0103,0.0296,0.0081,0.0798,-0.0344,0.0507,-0.0176
